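Results reflect a 48-hour exposure of cells in 96-well plates to compound at five concentrations. Here, GI50 denotes the concentration required for 50% inhibition of growth.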 The source made the active and inactive calls. Rule as the data show it: active = GI50 up to about 1.1 µM and inactive = higher.
Legend:
Test in all cases: NCI anticancer screen, dose series, 48 h
OVCAR-3 = test system: OVCAR-3
SK-MEL-2 = test system: SK-MEL-2
SK-MEL-28 = test system: SK-MEL-28
A498 = test system: A498
SNB-19 = test system: SNB-19
786-0 = test system: 786-0
HL-60 = test system: HL-60
CAKI-1 = test system: CAKI-1
SF-295 = test system: SF-295
NCI-H23 = test system: NCI-H23
CCRF-CEM = test system: CCRF-CEM
Malme-3M = test system: Malme-3M
HT-29 = test system: HT-29
HOP-92 = test system: HOP-92
SW-620 = test system: SW-620
ACHN = test system: ACHN
SN12C = test system: SN12C
HCC 2998 = test system: HCC 2998

Measured: GI50

CC(C)(Oc1ccc(C(=O)c2ccc(Cl)cc2)cc1Cl)C(=O)Nc1c(Cl)cccc1Cl
inactive: OVCAR-3 > 100 µM | SK-MEL-2 > 100 µM | SK-MEL-28 > 100 µM | A498 > 100 µM | SNB-19 > 100 µM | 786-0 > 100 µM | HL-60 10.7 µM | CAKI-1 > 100 µM | SF-295 > 100 µM | NCI-H23 > 100 µM | CCRF-CEM > 100 µM | Malme-3M > 100 µM | HT-29 > 100 µM | HOP-92 > 100 µM | SW-620 > 100 µM

CN(C(=O)c1cccs1)C(=S)N1CCN(c2ccccn2)CC1
inactive: OVCAR-3 > 100 µM | SK-MEL-2 > 100 µM | SK-MEL-28 > 100 µM | ACHN > 100 µM | SNB-19 > 100 µM | 786-0 > 100 µM | HL-60 > 100 µM | CAKI-1 > 100 µM | SF-295 > 100 µM | NCI-H23 > 100 µM | CCRF-CEM > 100 µM | Malme-3M > 100 µM | HT-29 > 100 µM | HOP-92 > 100 µM | SN12C > 100 µM | SW-620 > 100 µM

C/C(=N\NC(=O)CC(=O)Nc1ccc(C)cc1)c1cc2ccccc2oc1=O
inactive: OVCAR-3 > 100 µM | SK-MEL-2 > 100 µM | SK-MEL-28 > 100 µM | ACHN > 100 µM | SNB-19 > 100 µM | 786-0 > 100 µM | HL-60 > 100 µM | SF-295 > 100 µM | NCI-H23 > 100 µM | CCRF-CEM > 100 µM | Malme-3M 38.3 µM | HT-29 > 100 µM | SN12C > 100 µM | SW-620 > 100 µM

O=C1CCCCCCCCCCC(=O)N2CCOCCOCCN1Cc1cccc(n1)C2
inactive: OVCAR-3 44.5 µM | SK-MEL-2 > 100 µM | SK-MEL-28 > 100 µM | HCC 2998 > 100 µM | A498 > 100 µM | ACHN > 100 µM | SNB-19 > 100 µM | 786-0 > 100 µM | CAKI-1 > 100 µM | SF-295 65.5 µM | NCI-H23 > 100 µM | CCRF-CEM > 100 µM | Malme-3M > 100 µM | HT-29 > 100 µM | SN12C > 100 µM | SW-620 > 100 µM

O=C(COc1ccc(Br)cc1Br)N1N=C(c2ccc([N+](=O)[O-])o2)CC1(O)c1ccccc1 (centres undefined)
inactive: OVCAR-3 3.93 µM | SK-MEL-2 12.5 µM | SK-MEL-28 12.6 µM | HCC 2998 10.6 µM | A498 10.2 µM | ACHN 15.3 µM | SNB-19 19.3 µM | 786-0 15.6 µM | HL-60 3.12 µM | CAKI-1 14.5 µM | SF-295 18.7 µM | NCI-H23 12.4 µM | CCRF-CEM 3.13 µM | Malme-3M 10.7 µM | HT-29 13.4 µM | SN12C 12.2 µM | SW-620 13.1 µM

O=C1/C(=C/c2ccc3c(c2)OCCO3)CCC/C1=C\c1ccc2c(c1)OCCO2
inactive: OVCAR-3 20.3 µM | SK-MEL-28 24.3 µM | HCC 2998 18.1 µM | A498 27.7 µM | ACHN 39.9 µM | SNB-19 34.8 µM | 786-0 22.9 µM | HL-60 12.3 µM | CAKI-1 39.3 µM | SF-295 17 µM | CCRF-CEM 29.9 µM | Malme-3M 29 µM | HT-29 6.9 µM | HOP-92 32.1 µM | SN12C 25.7 µM | SW-620 18.2 µM

CC1C[C@@]2(c3ccccc3)C(=O)CCC[C@H]2N1 (some centres undefined)
inactive: OVCAR-3 > 100 µM | SK-MEL-2 > 100 µM | SK-MEL-28 > 100 µM | A498 > 100 µM | ACHN > 100 µM | SNB-19 > 100 µM | 786-0 > 100 µM | HL-60 > 100 µM | CAKI-1 > 100 µM | SF-295 > 100 µM | NCI-H23 > 100 µM | CCRF-CEM > 100 µM | Malme-3M 16.9 µM | HT-29 > 100 µM | HOP-92 29.6 µM | SN12C > 100 µM | SW-620 > 100 µM

Cc1ccc(C)c2c1C1CCCCC3(OCCCO3)C21O (centres undefined)
inactive: OVCAR-3 51.4 µM | SK-MEL-2 > 100 µM | SK-MEL-28 > 100 µM | HCC 2998 > 100 µM | A498 > 100 µM | ACHN > 100 µM | SNB-19 > 100 µM | 786-0 > 100 µM | HL-60 > 100 µM | CAKI-1 > 100 µM | SF-295 > 100 µM | NCI-H23 > 100 µM | CCRF-CEM > 100 µM | Malme-3M > 100 µM | HT-29 > 100 µM | SN12C > 100 µM | SW-620 > 100 µM

O=C1c2ccccc2C(=O)C2C1C1C(=O)c3ccccc3C(=O)C21 (centres undefined)
inactive: OVCAR-3 40.6 µM | SK-MEL-2 > 100 µM | SK-MEL-28 > 100 µM | HCC 2998 51.6 µM | ACHN > 100 µM | SNB-19 > 100 µM | 786-0 > 100 µM | HL-60 58.9 µM | CAKI-1 > 100 µM | SF-295 > 100 µM | NCI-H23 99.1 µM | CCRF-CEM > 100 µM | Malme-3M 55.1 µM | HT-29 > 100 µM | HOP-92 > 100 µM | SN12C > 100 µM | SW-620 > 100 µM

COc1ccc(CNc2cnc3ccc(N)cc3n2)cc1OC
inactive: OVCAR-3 > 100 µM | SK-MEL-2 > 100 µM | SK-MEL-28 67 µM | HCC 2998 > 100 µM | ACHN > 100 µM | SNB-19 > 100 µM | 786-0 > 100 µM | HL-60 > 100 µM | CAKI-1 > 100 µM | SF-295 > 100 µM | NCI-H23 > 100 µM | CCRF-CEM > 100 µM | Malme-3M > 100 µM | HT-29 > 100 µM | SN12C > 100 µM | SW-620 > 100 µM

O=c1sc(-c2nc3ccccc3[nH]2)c(/N=C/c2ccccc2)n1-c1ccccc1
inactive: OVCAR-3 25.6 µM | SK-MEL-2 63 µM | SK-MEL-28 > 100 µM | HCC 2998 > 100 µM | A498 > 100 µM | ACHN 65.2 µM | SNB-19 53.7 µM | 786-0 42.9 µM | HL-60 > 100 µM | CAKI-1 > 100 µM | SF-295 40.9 µM | NCI-H23 > 100 µM | CCRF-CEM > 100 µM | Malme-3M 92.7 µM | HT-29 > 100 µM | SN12C 73.3 µM | SW-620 > 100 µM

C=CCC(N(C)C(=O)[C@H](Cc1ccccc1)NC(=O)OCc1ccccc1)P(=O)(Oc1ccccc1)Oc1ccccc1 (some centres undefined)
inactive: OVCAR-3 > 100 µM | SK-MEL-2 > 100 µM | SK-MEL-28 > 100 µM | HCC 2998 > 100 µM | ACHN 6.5 µM | SNB-19 > 100 µM | 786-0 > 100 µM | HL-60 12.8 µM | SF-295 > 100 µM | NCI-H23 > 100 µM | CCRF-CEM 8.51 µM | Malme-3M > 100 µM | HT-29 > 100 µM | HOP-92 29 µM | SN12C > 100 µM | SW-620 > 100 µM

From ChEMBL document CHEMBL1201862, “PubChem BioAssay data set” (2004)
